We go through 4 molecules from patent US20250206751A1, “HETEROCYCLIC COMPOUND FOR INDUCING DEGRADATION OF G12D MUTANT KRAS PROTEIN” (Astellas Pharma Inc., priority 2022, published 2025).

Test [1] concerns human G12D mutant KRAS-positive pancreatic cancer line AsPC-1. Kind of test: Non-anchorage-dependent cell growth inhibition, spheroid 3D cell culture (Test Example 3). It is filed as cell-based. Conditions: AsPC-1 spheroid 3D culture, 6 days, CellTiter Glo 2.0. The essentials: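 AsPC-1 spheroids, 5×10^2 cells per well on low-adhesion round-bottom plates in RPMI 1640/10% FBS, dosed next day at 10 or 6 points spanning 10 μM to 0.3 nM final for 6 days at 37° C., 5% CO2. Viability by CellTiter Glo 2.0 luminescence; IC50 by Sigmoid-Emax regression, DMSO 100% and cell-free medium 0%.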

Test [2] deals with T1, KRAS G12D protein (Homo sapiens, UniProt P01116, G12D).
T1 construct: host or cells: AsPC-1
Briefly: KRAS degradation activity by Cell ELISA in AsPC-1 (Test Example 1). The test is classed as cell-based. To be noted: AsPC-1 cells, cultured overnight with compound, corrected with β-actin, read-out: DC50 (50% degradation concentration of the amounts of KRAS). The essentials: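 AsPC-1 cells (KRAS G12D), 2.0×10^4/well, treated overnight with compound (10 points, 10 μM–0.3 nM final) in RPMI 1640/10% FBS. Fixed cells immunostained for G12D-specific Ras and β-actin, with near-IR fluorescence read. Ras/actin ratio scaled DMSO = 0% and actin-only = 100%, and DC50 fitted by Sigmoid-Emax regression.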

Test [3] has as its system phosphorylation of threonine 202 (Thr202) and tyrosine 204 (Tyr204) of ERK. Kind of test: ERK phosphorylation inhibitory effect by Cell ELISA in AsPC-1 (Test Example 2). It is filed as cell-based, human. Conditions: cultured overnight with compound, 1 μM trametinib taken as 0%. In a few lines:
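AsPC-1 cells (G12D KRAS) treated overnight with compound (10 points, 10 μM to 0.3 nM final), then glyoxal-fixed and immunostained for phospho-ERK with a fluorescent secondary read at 800 nm. IC50 by Sigmoid-Emax regression, with DMSO as 100% and 1 μM trametinib as 0%.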

Where [4] appears, read: Homo sapiens, ASPC1, AsPC-1 cells.

T1 sequence (P01116 1-188 isoform P01116-2 G12D): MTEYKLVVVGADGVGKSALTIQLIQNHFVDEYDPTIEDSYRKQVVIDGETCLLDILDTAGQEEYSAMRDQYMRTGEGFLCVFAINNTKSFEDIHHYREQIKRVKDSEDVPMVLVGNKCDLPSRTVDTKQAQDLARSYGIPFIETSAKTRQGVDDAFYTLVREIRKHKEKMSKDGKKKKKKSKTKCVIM

For `CO[C@@H](C)COc1cc(O[C@H]2CCNC2)c2cc(C3CC3)c(-c3c(C)c(F)cc4[nH]ncc34)c(OCc3ccc(-c4cn([C@H](C(=O)N5C[C@H](O)C[C@H]5C(=O)N[C@@H](CO)c5ccc(-c6scnc6C)cc5)C(C)C)nn4)cc3)c2n1` [Example 22], the IC50 in test [1] (Homo sapiens, ASPC1, 144 h) turned out to be 5 nM; in test [3] (setting [4]) it was 5 nM. Also, in test [2], the DC50 is 59 nM.
For `Cc1ncsc1-c1ccc([C@H](CO)NC(=O)[C@@H]2C[C@@H](O)CN2C(=O)[C@H](C(C)C)n2cc(-c3ccc(COc4c(-c5c(C)c(F)cc6[nH]ncc56)c(C5CC5)cc5c(N(C)[C@H]6CCNC6)nc(OC[C@@H](C)C(F)F)nc45)cc3)nn2)cc1` [Example 42], the IC50 in test [1] (Homo sapiens, ASPC1, 144 h) stood at 4 nM; in test [3] (setting [4]), 6 nM. Also, the DC50 in test [2] worked out at 91 nM.
For `CO[C@@H](C)COc1cc(N2C[C@@H]3C[C@H]2CN3)c2cc(C3CC3)c(-c3c(C)c(F)cc4[nH]ncc34)c(OCc3ccc(-c4cn([C@H](C(=O)N5C[C@H](O)C[C@H]5C(=O)N[C@@H](CO)c5ccc(-c6scnc6C)cc5)C(C)C)nn4)cc3)c2n1` [Example 55], the IC50 in test [1] (Homo sapiens, ASPC1, 144 h) is 15 nM; in test [3] (setting [4]), 4 nM. Also, in test [2], the DC50 was determined as 10 nM.
With `CO[C@@H](C)COc1cc(N(C)[C@H]2CCNC2)c2cc(C3CC3)c(-c3c(C)c(F)cc4[nH]ncc34)c(OCc3ccc(-c4cn([C@H](C(=O)N5C[C@H](O)C[C@H]5C(=O)N[C@@H](CO)c5ccc(-c6scnc6C)cc5)C(C)C)nn4)cc3)c2n1` [Example 56], the values for the IC50 in test [1] and in test [3] (AsPC-1 cells) were 73 nM and 17 nM, respectively. For the same molecule, in test [2], the DC50 turned out to be 28 nM.
